{"source": "patent US6669951B2", "about": "“Compositions and methods for enhancing drug delivery across and into epithelial tissues” (CellGate, Inc., priority 1999, dated 2003)", "key": {"[1]": {"tested_on": "ear inflammation in Balb/c mice", "assay": "Murine contact dermatitis (DNFB), ear inflammation", "type": "in vivo, mouse", "experimental": "Balb/c (6-7 weeks) mice were painted on the abdomen with 100 μl of 0.7% DNFB in acetone olive oil (95:5). Three days later both ears of the animals were restimulated with 0.5% DNFB in acetone. […] Ear inflammation was measured 24 hours after restimulation using a spring loaded caliper. The percent reduction of inflammation was calculated using the following formula […], where t=thickness of the treated ear, n=the thickness of a normal untreated ear, and u=thickness of an inflamed ear without any treatment. N=20 animals in each group."}, "[2]": {"tested_on": "IL-2 secretion by Jurkat cells", "assay": "Inhibition of IL-2 secretion, PMA/ionomycin stimulated", "type": "cell-based, human", "experimental": "T cells subsequently were stimulated to produce IL-2 by addition of 10 ng/ml PMA (Sigma, St. Louis, Mo.) and 1 μM ionomycin (CalBiochem, San Diego, Calif.). Cultures were incubated overnight at 37° C. and supernatants were collected and IL-2 was measured using a fluorescent ELISA. Briefly, plates were coated with 4 μg/ml anti-human IL-2 antibody (BD Pharmingen, San Diego, Calif.), blocked with PBS containing 10% FBS for 1 hour at room temperature, washed, and supernatants added and incubated for 1 hour. Media was removed and biotinylated anti-human IL-2 (1.6 μg/ml), was added for one hour. The plates were washed, and then europium labeled streptavidin (0.04 ng/ml) was added for one hour. After another wash, enhancement solution was added and the resulting fluorescence was measured using a Wallac plate reader (Wallac, Turku, Finland).\nSee R. Wiskocil, et al., J Immunol 134, 1599-603 (1985)."}, "[3]": {"assay": "Half-life / release of conjugate in buffer", "type": "physicochemical", "details": "for half-life: buffer"}, "[4]": {"assay": "Blood levels after buccal delivery", "type": "in vivo, rat", "details": "5 mg/kg in Cremophor EL:ethanol 1:1", "source_text": "(§1) Clotting was inhibited by transferring the blood to glass tubes containing 100λ of 0.5% EDTA, and the blood was frozen."}, "[5]": {"assay": "Drug blood levels after intracolonic injection (LC MS MS)", "type": "in vivo, Wistar rats", "details": "intracolonic in PBS", "experimental": "Wistar rats, females of approximately 200-300 g (Simonsen, Gilroy, Calif.), were anesthetized, their abdomens were shaved, midline incisions were made, and a one-half inch section of the ascending colon in each animal was tied off with sutures. Taxol and cyclosporin (5 mg/kg) were injected as solutions in a 1:1 v/v Cremophor EL:ethanol mixture, whereas equivalent molar amounts of the r7 conjugates were injected in PBS. In all cases, the volume injected was approximately 500λ. The colon was placed back into the cavity, and the incision was closed using sutures.\nas §1\nEither taxol or cyclosporin was extracted from the whole blood using a modification of literature procedures. Briefly, whole blood (100λ) was transferred to a screw capped glass tube containing five mls of diethyl ether. The sample was vortexed vigorously for two minutes, centrifuged, and frozen in dry ice/methanol. The ethereal layer was transferred to another glass tube and the ether was evaporated. […] Samples were placed into a Perkin-Elmer series 200 autosampler and sequencially injected onto a C18 reverse column at 70° C. connected to a Shimadzu HPLC system, eluted with 70% methanol, 30% aqueous ammonium formate buffer, and the effluent was analyzed on a PE Sciex API 3000 tandem mass spectrometer."}, "skin of nude mice": {"tested_on": "skin of nude mice", "assay": "Penetration of Cu-DTPA complexes into skin of nude mice", "type": "in vivo, mouse", "details": "1 μM to 1 mM, abdominal region, 15, 30, 45 minutes", "excerpt": "As controls, an equimolar amount of the Cu-DTPA complex was spotted onto the abdominal region."}, "[6]": {"tested_on": "human skin grafts on SCID mice", "details": "in vivo", "experimental": "Samples (100 μl) were applied as a liquid within excipient and prevented from dispersing by a Vaseline™ barrier and allowed to penetrate for fifteen minutes. At the end of this period animal was sacrificed, the relevant section of skin was excised, embedded in mounting medium (OCT) and frozen. […] Slides were analyzed by fluorescent microscopy."}, "[7]": {"tested_on": "CD3+ T cells in inflamed skin", "details": "mouse, in vivo"}, "[8]": {"details": "cited from earlier work"}, "[9]": {"tested_on": "epithelia of the gastrointestinal tract", "assay": "Gastrointestinal absorption protocol (histology)", "type": "in vivo, mouse", "experimental": "Experiments were performed on 8- to 10-week-old female Swiss Webster mice purchased from Taconic (Germantown, N.Y.). Mice were anesthetized with Nembutal and a midline incision was made along the abdomen. Intestines were measured, tied off at both ends of the desired section with sutures, and biotinylated peptides were injected into the lumen (approximately 100λ/inch). After a fifteen minute incubation, the tissue was removed and the lumen was gently washed with PBS.\nImmediately following incubation with biotinylated peptides, the anesthetized rodents were sacrificed by cervical dislocation and the tied off sections of the GI tract were removed. The lumens of the various sections were filled with OCT using a plastic tipped syringe, immersed in OCT filled boats, and snap frozen in a 2-methyl-butane/dry ice solution. Frozen sections were allowed to warm slightly and 2 mm thick sagital cuts were made using a steel razor blade. The cuts were placed into OCT molds and snap frozen in a 2-methyl-butane/dry ice solution. Sections (5 μm) were cut on the cryostat, fixed in acetone at 4° C. for 10 minute, and allowed to air dry. After rehydration in PBS for 5 minutes, sections were blocked with normal horse serum, washed, incubated with streptavidin-FITC (20 μg/ml) for 30 minutes, washed, and mounted with mounting medium containing propidium iodide (PI).\nAfter fifteen minutes of exposure, the relevant section of tissue was dissected, frozen, sectioned, and stained with Streptavidin fluorescein to define the location of the biotinylated peptide, and propidium iodide to counterstain all the nuclei in the section."}, "[10]": {"tested_on": "squamous epithelia of the oral cavity", "assay": "Penetration into squamous epithelia of the oral cavity", "type": "in vivo, mouse", "details": "fifteen minutes", "source_text": "To determine whether CellGate transporters could enter the squamous epithelia of the oral cavity, mice were anesthetized with Nembutal, their heads tipped to one side and solutions of the biotinylated peptides were placed in their mouths. After fifteen minutes the liquid was removed by pipette.\nThe capacity of the transporters to enter the squamous epithelial layers of the oral cavity was examined. A mouse was anesthetized, its head was tipped so that a solution of biotinylated r9 could be administered. The animal was kept in this position for fifteen minutes, at which time it was sacrificed, and the tongue and cheek were dissected, frozen, sectioned, stained with streptavidin-fluorescein, and counterstained with propidium iodide."}}, "note": "Where two headings read alike, the source gives them in different places.", "data": [{"molecule": "C/C=C/C[C@@H](C)[C@@H](OC(=O)CN(Cc1ccccc1)C(=O)CNCC(=O)N[C@@H](CCCNC(=N)N)C(=O)N[C@@H](CCCNC(=N)N)C(=O)N[C@@H](CCCNC(=N)N)C(=O)N[C@@H](CCCNC(=N)N)C(=O)N[C@@H](CCCNC(=N)N)C(=O)N[C@@H](CCCNC(=N)N)C(=O)N[C@@H](CCCNC(=N)N)C(N)=O)[C@H]1C(=O)N[C@@H](CC)C(=O)N(C)CC(=O)N(C)[C@@H](CC(C)C)C(=O)N[C@@H](C(C)C)C(=O)N(C)[C@@H](CC(C)C)C(=O)N[C@@H](C)C(=O)N[C@H](C)C(=O)N(C)[C@@H](CC(C)C)C(=O)N(C)[C@@H](CC(C)C)C(=O)N(C)[C@@H](C(C)C)C(=O)N1C", "note": "[releasable R7 CsA]", "values": [{"measurement": "reduction in ear inflammation", "setting": "[1]; 0.01% topical", "value": "40.9%±3.3"}, {"measurement": "reduction in ear inflammation", "setting": "[1]; 0.1% topical", "value": "64.8%±4.0"}, {"measurement": "reduction in inflammation in the untreated ear", "setting": "[1]; 1%", "value": "No reduction in inflammation was seen in the untreated ear"}, {"measurement": "reduction in ear inflammation", "setting": "[1]; 1% topical, 1, 5 and 20 h after restimulation, measured 24 hours", "value": "73.9%±4.0"}, {"measurement": "inhibition of IL-2 secretion", "setting": "[2]; added 12 hours prior to PMA/ionomycin", "value": "dose dependent inhibition was observed"}, {"measurement": "EC50 relative to CsA dissolved in alcohol", "setting": "[2]; added at the same time", "value": "approximately two"}, {"measurement": "pH dependent stability", "setting": "[3]; absence of serum", "value": "stable at acidic pH, but labile at physiological pH in the absence of serum"}, {"measurement": "half-life", "setting": "[3]; PBS pH 7.4 (37° C. where stated), read-out: half-life", "value": 1.5, "unit": "h"}]}, {"molecule": "CC(=O)O[C@H]1C(=O)[C@@]2(C)[C@H]([C@H](OC(=O)c3ccccc3)[C@]3(O)C[C@H](OC(=O)[C@H](O)[C@@H](NC(=O)c4ccccc4)c4ccccc4)C(C)=C1C3(C)C)[C@]1(OC(C)=O)CO[C@@H]1C[C@@H]2O", "note": "[taxol, paclitaxel]", "values": [{"measurement": "appearance of taxol in blood after buccal administration", "setting": "[4]", "value": "appeared in the blood stream by the first time point"}]}, {"molecule": "CC(=O)N[C@@H](CSCC(=O)O[C@@H](C(=O)O[C@H]1C[C@@]2(O)[C@@H](OC(=O)c3ccccc3)[C@@H]3[C@]4(OC(C)=O)CO[C@@H]4C[C@H](O)[C@@]3(C)C(=O)[C@H](OC(C)=O)C(=C1C)C2(C)C)[C@@H](NC(=O)c1ccccc1)c1ccccc1)C(=O)N[C@H](CCCNC(=N)N)C(=O)N[C@H](CCCNC(=N)N)C(=O)N[C@H](CCCNC(=N)N)C(=O)N[C@H](CCCNC(=N)N)C(=O)N[C@H](CCCNC(=N)N)C(=O)N[C@H](CCCNC(=N)N)C(=O)N[C@H](CCCNC(=N)N)C(N)=O", "note": "[compound 14]", "values": [{"measurement": "half-life", "setting": "[3]; PBS, pH 7.4 at 37° C., read-out: half life (converted)", "value": 5, "unit": "h"}, {"measurement": "blood levels of taxol", "setting": "[5]", "value": "did not result in significant blood levels of taxol within five hours"}]}, {"molecule": "Copper-diethylenetriaminepentaacetic Acid Complex [Cu-DTPA]", "values": [{"measurement": "colour on skin after wiping off", "setting": "skin of nude mice", "value": "not where the Cu-DTPA alone was spotted"}]}, {"molecule": "C/C=C/C[C@@H](C)[C@@H](OC(=O)CSC[C@H](NC(=O)[C@@H](CCCNC(=N)N)NC(=O)[C@@H](CCCNC(=N)N)NC(=O)[C@@H](CCCNC(=N)N)NC(=O)[C@@H](CCCNC(=N)N)NC(=O)[C@@H](CCCNC(=N)N)NC(=O)[C@@H](CCCNC(=N)N)NC(=O)[C@@H](CCCNC(=N)N)NC(=O)CCCCCNC(=O)CCCC[C@@H]1SC[C@@H]2NC(=O)N[C@@H]21)C(N)=O)[C@H]1C(=O)N[C@@H](CC)C(=O)N(C)CC(=O)N(C)[C@@H](CC(C)C)C(=O)N[C@@H](C(C)C)C(=O)N(C)[C@@H](CC(C)C)C(=O)N[C@@H](C)C(=O)N[C@H](C)C(=O)N(C)[C@@H](CC(C)C)C(=O)N(C)[C@@H](CC(C)C)C(=O)N(C)[C@@H](C(C)C)C(=O)N1C", "note": "[biotin r7 CsA, B-aca-r7-Cys-O-acyl-Cyclosporin A]", "values": [{"measurement": "penetration into human skin", "setting": "[6]", "value": "penetrated human epidermis and dermis"}, {"measurement": "presence in infiltrating T cells of inflamed skin", "setting": "[7]", "value": "found in all CD3[+] T cells in the tissue"}]}, {"molecule": "CC(=O)O[C@@]12CO[C@@H]1C[C@H](O)[C@@]1(C)C(=O)[C@H](O)C3=C(C)[C@@H](OC(=O)[C@H](O)[C@@H](NC(=O)OC(C)(C)C)c4ccccc4)C[C@@](O)([C@@H](OC(=O)c4ccccc4)[C@H]21)C3(C)C", "note": "[taxotere]", "values": [{"measurement": "water solubility", "setting": "[8]", "value": "6 to 7", "unit": "µg/mL"}]}, {"molecule": "N=C(N)NCCC[C@@H](NC(=O)[C@@H](CCCNC(=N)N)NC(=O)[C@@H](CCCNC(=N)N)NC(=O)[C@@H](CCCNC(=N)N)NC(=O)[C@@H](CCCNC(=N)N)NC(=O)[C@@H](CCCNC(=N)N)NC(=O)[C@@H](CCCNC(=N)N)NC(=O)[C@@H](CCCNC(=N)N)NC(=O)[C@@H](CCCNC(=N)N)NC(=O)CCCCCNC(=O)CCCC[C@@H]1SC[C@@H]2NC(=O)N[C@@H]21)C(N)=O", "note": "[bio aca r9 CONH2]", "values": [{"measurement": "staining of duodenum", "setting": "[9]; 100 μM injected into lumen, fifteen minutes", "value": "no detectable staining over background was observed"}, {"measurement": "staining of ascending and transverse colon", "setting": "[9]; 100 μM, fifteen minutes", "value": "stained all surface areas of the villi, and penetrated several cell layers"}, {"measurement": "staining of ileum", "setting": "[9]; 100 μM, fifteen minutes", "value": "first sign of uniform staining"}, {"measurement": "staining of jejunum", "setting": "[9]; 100 μM, fifteen minutes", "value": "Poor staining"}, {"measurement": "uptake along the GI tract", "setting": "[9]; mouse, in vivo", "value": "uptake increasing with distance from the gastric pylorus"}, {"measurement": "penetration into cheek and tongue", "setting": "[10]", "value": "quickly and efficiently penetrated multiple layers of the epithelia"}]}]}
